Literature values as cited in patent US8431151B2, “Antimicrobial nanostructured hydrogel web containing silver” (Syracuse University, priority 2009, dated 2013).

What was measured:
[1] = tested on: 16 bacterial species including Escherichia coli, Pseudomonas aeruginosa, and Staphylococcus aureus; settings: 16 bacterial species tested
mouse bone marrow cells = settings: 4 μg/mL silver (Ag^+)

[Ag+] [silver (Ag^+)]
silver concentration at which bacterial species are inhibited [1]: 1.25 µg/mL | detrimental effects to mouse bone marrow cells (mouse bone marrow cells): does not exhibit any obvious detrimental effects
